Source: patent US20220280594A1, “APPLICATION OF POLYPEPTIDE OR DERIVATIVE THEREOF” (CHENGDU HUITAI BIOMEDICINE CO., LTD., priority 2019, published 2022)
Ends that are not written are not given here. PEG = not defined here

Experiments:
[1] = system: human thyroid cancer cells (FRO); experiment: scratch assay, migration of FRO cells; type: cell-based; conditions: 10 μM, 48 hours, control group 60.34 ± 8.32
How it was run: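 FRO monolayers were scratched, washed, and cultured 48 h in 2% FBS medium with polypeptide derivatives at 10 μM or PBS control, three wells per group. Migration rate (%) = (original − current scratch width)/original width × 100, measured from images.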

[2] = system: human lung squamous carcinoma cells (NCI-H226); experiment: scratch assay, migration of NCI-H226 cells; type: cell-based; conditions: NCI-H226, 10 μM, 48 hours; control group 65.31 ± 3.19
How it was run: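 A straight scratch was made in confluent NCI-H226 monolayers (1-2×10^5 cells/well). Cells were then kept 48 h in 2% FBS medium with 10 μM polypeptide or PBS control, triplicate wells. Migration rate (%) = (original − current scratch width)/original width ×100, from imaged scratch widths.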

[3] = system: human breast cancer cells (MDA-MB-453); experiment: scratch assay, migration of MDA-MB-453 cells; type: cell-based; conditions: MDA-MB-453, 10 μM, 48 hours; control group 32.42 ± 2.04
How it was run: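 Confluent MDA-MB-453 monolayers were scratched, then treated with peptide at 10 μM in 2% FBS medium for 48 h, with a PBS control and triplicate wells. Migration rate (%) was taken as (original − current scratch width)/original width ×100 from images.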

[4] = system: human oral epidermoid carcinoma KB cells; experiment: scratch assay, migration of KB cells; type: cell-based; conditions: 10 μM, 48 hours, control group 54.03 ± 4.21
How it was run: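 Monolayers of KB cells were scratched, washed with PBS, then cultured 48 hours in 2% FBS medium containing test polypeptide (10 μM) or PBS control, in triplicate wells. From images, migration rate (%) = (original − current scratch width)/original width × 100.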

[5] = system: human non-small cell lung cancer cells (A549); experiment: scratch assay, migration of A549 cells; type: cell-based; conditions: A549, 10 μM, 48 hours; control group 75.31 ± 8.19
How it was run: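 Confluent A549 monolayers in 24-well plates were scratched, washed with PBS, then cultured 48 h in 2% FBS medium with peptide at 10 μM or PBS control, triplicate wells. Scratch width measured from images; migration rate (%) = (original − current width)/original width × 100.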

[6] = system: human liver adenocarcinoma cells (SK-HEP-1); experiment: transwell migration assay, SK-HEP-1 cells; type: cell-based; conditions: SK-HEP-1 transwell migration, 10 μM, 24 hours; control group 1 782 ± 108, control group 2 768 ± 86
How it was run: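 SK-HEP-1 cells in serum-free medium seeded in upper transwell chamber (2-3×10^5 cells/mL) over complete medium; after 4-5 h at 37 °C, 5% CO2, peptide added at 10 μM final in upper chamber. After 24 h, migrated cells fixed in methanol, crystal-violet stained, imaged and counted.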

[7] = system: human lung cancer cells (A549) subcutaneous xenograft; experiment: lung cancer subcutaneous xenograft animal model, intravenous injection; type: in vivo, mice (BALB/c-nu/nu); conditions: intravenous 60 mg/kg once every other day, 20 days; for Weight of tumor (g) (mean ± SD): control 2.53 ± 0.17; for Volume of tumor (mm^3) (mean ± SD): control 3373.26 ± 581.44
How it was run: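 Female BALB/c-nu/nu mice (4-6 weeks) inoculated subcutaneously with ~2×10^6 A549 cells; grouped once tumours exceeded 100 mm^3. Peptides given intravenously at 60 mg/kg for 20 days versus model control. Tumour weight and volume measured at dissection; body weight recorded every other day.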

[8] = system: human lung cancer cells (95D); experiment: scratch assay, migration of 95D cells; type: cell-based; conditions: 10 μM, 48 hours, control group 55.3 ± 3.19
How it was run: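 Confluent 95D monolayers were scratched, washed with PBS and cultured 48 h in 2% FBS medium containing peptide (10 μM) or PBS control, in triplicate wells. Scratch width was measured on images; migration rate (%) = (original width − current width)/original width × 100.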

[9] = system: human pancreatic cancer cells (PANC-1); experiment: transwell migration assay, PANC-1 cells; type: cell-based; conditions: PANC-1 transwell migration, 10 μM, 24 hours; control group 360 ± 60
How it was run: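 Serum-free PANC-1 cells placed in the upper transwell chamber with complete medium below; after 4-5 h, peptide added to the upper chamber at a final 10 μM. Migration ran 24 h at 37 °C; cells on the membrane underside were methanol-fixed, crystal violet-stained and counted by microscopy.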

| Substance | Migration rate (%) (mean ± SD, P) [1] | Migration rate (%) (mean ± SD, P) [2] | Migration rate (%) (mean ± SD, P) [3] | Migration rate (%) (mean ± SD, P) [4] | Migration rate (%) (mean ± SD, P) [5] | Number of cells (mean ± SD, P), migrated cells [6] | Weight of tumor (g) (mean ± SD) [7] | Volume of tumor (mm^3) (mean ± SD) [7] | Migration rate (%) (mean ± SD, P) [8] | Number of cells (mean ± SD, P), migrated cells [9] |
| --- | --- | --- | --- | --- | --- | --- | --- | --- | --- | --- |
| N30: SEQ ID NO: 1 with deletion of positions 1-5 and 15-18 and PEG modification at the carboxyl terminal (LAKENVTQD-{PEG}; reading uncertain) | 5.16 ± 1.67,*** % | 13.91 ± 7.36,*** % | 15.77 ± 2.33,*** % | 8.75 ± 3.35,*** % | 24.57 ± 3.19,*** % | 156 ± 22,**** | 1.01 ± 0.34 | 1187.13 ± 246.31 | 33.91 ± 3.36,** % | 243 ± 33,* |
| N54: SEQ ID NO: 1 with A7R, addition of two amino acids and PEG modification at the carboxyl terminal (YRVRFLRKENVTQDAEDNTC-{PEG}; reading uncertain) | 8.26 ± 3.47% | 24.66 ± 5.13,*** % | 3.19 ± 1.08,*** % | 6.91 ± 3.44,*** % | 54.66 ± 4.73,* % | 345 ± 3,**** | 0.89 ± 0.37 | 1381.65 ± 396.21 | 24.66 ± 6.13,** % | 128 ± 19,*** |
| N2: SEQ ID NO: 1 with deletion of one amino acid (position 18) at the carboxyl terminal (YRVRFLAKENVTQDAED) | 22.88 ± 5.43,** % | 12.42 ± 8.44,*** % | 12.96 ± 3.13,** % | 6.82 ± 3.25,*** % | 47.79 ± 3.12,** % | 104 ± 10,**** | 0.6 ± 0.28 | 1297.28 ± 359.77 | 36.44 ± 4.16,** % | 221 ± 35,** |
| N27: SEQ ID NO: 1 with addition of one amino acid at the carboxyl terminal and PEG modification at the carboxyl terminal (YRVRFLAKENVTQDAEDNC-{PEG}; reading uncertain) | 13.42 ± 3.35,*** % | 31.19 ± 5.96,*** % | 21.24 ± 3.73,* % | 12.53 ± 3.88,** % | 37.20 ± 6.23,** % | 469 ± 56,** | 1.14 ± 0.23 | 1402.37 ± 405.66 | 37.20 ± 6.23,* % | 143 ± 25,*** |
| N24: SEQ ID NO: 1 with substitution A7R, deletion of positions 1-2 and of position 18 (VRFLRKENVTQDAED) | 16.54 ± 3.19,** % | 15.74 ± 8.70,*** % | 15.84 ± 4.44,* % | 24.03 ± 4.21,* % | 31.05 ± 3.60,** % | 265 ± 24,**** | 0.81 ± 0.25 | 1099.3 ± 512.53 | 35.78 ± 4.79,** % | 239 ± 24,* |
| N35: SEQ ID NO: 1 with A15R, addition of one amino acid and PEG modification at the carboxyl terminal (YRVRFLAKENVTQDREDNC-{PEG}; reading uncertain) | 8.04 ± 2.90,*** % | 42.47 ± 5.12,** % | 8.46 ± 2.77,*** % | 6.07 ± 2.30,*** % | 32.27 ± 9.53,** % | 315 ± 36,*** | 0.75 ± 0.24 | 1097.54 ± 216.63 | 22.47 ± 5.12,*** % | 151 ± 10,*** |
| N8: SEQ ID NO: 1 with deletion of positions 15-18 and positions 3, 4 and 11 (YRFLAKENTQD) | 7.28 ± 2.89,*** % | 20.29 ± 4.29,*** % | 9.44 ± 2.09,*** % | 11.55 ± 1.62,*** % | 32.62 ± 5.83,** % | 139 ± 13,**** | 1.02 ± 0.21 | 1359.06 ± 275.17 | 35.13 ± 4.45,** % | 133 ± 20,*** |
| N22: SEQ ID NO: 1 with substitution A7R, deletion of three amino acids at the amino terminal and of positions 15-18 (RFLRKENVTQD) | 42.34 ± 4.98,* % | 18.69 ± 5.25,*** % | 8.54 ± 1.57,** % | 10.02 ± 2.35,*** % | 33.59 ± 5.62,** % | 42 ± 17,**** | 0.89 ± 0.19 | 1288.08 ± 577.81 | 38.35 ± 5.04,** % | 200 ± 18,*** |
| N39: SEQ ID NO: 1 with addition of two amino acids and PEG modification at the carboxyl terminal (YRVRFLAKENVTQDAEDNTC-{PEG}; reading uncertain) | 36.51 ± 4.36,* % | 21.82 ± 5.54,*** % | 11.02 ± 6.8,** % | 9.21 ± 4.20,*** % | 56.39 ± 6.30,* % | 261 ± 25,**** | 0.98 ± 0.3 | 918.84 ± 288.77 | 43.19 ± 4.82,* % | 262 ± 13,* |
| N29: SEQ ID NO: 1 with deletion of positions 1-5 and 15-18 and PEG modification at the amino terminal ({PEG}-LAKENVTQD; reading uncertain) | 5.12 ± 2.67,*** % | 40.30 ± 4.81,** % | 13.73 ± 3.29,** % | 8.07 ± 1.79,*** % | 20.55 ± 3.73,*** % | 254 ± 14,**** | 1 ± 0.17 | 1365.48 ± 435.32 | 30.30 ± 4.81,** % | 178 ± 31,*** |
